For this experiment, the target named is T1, hNGF (Homo sapiens, UniProt P01138).
T1 construct: gene NGF; homodimer; amine-coupled to the GCI chip
The experiment in a line: grating-coupled interferometry (Creoptix WAVE-delta, waveRAPID), hNGF immobilised by amine coupling. The experiment is classed as binding.

T1 sequence (P01138 122-239): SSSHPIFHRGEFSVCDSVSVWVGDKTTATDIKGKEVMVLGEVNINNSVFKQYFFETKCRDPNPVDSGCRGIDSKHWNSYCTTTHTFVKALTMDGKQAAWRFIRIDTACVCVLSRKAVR

Take `C[S+](C)[O-]` [DMSO]: the Kd (commonly the constant that tells how readily two partners part at equilibrium) was ~2100 µM.

The values above are taken from publication PMC12300743, “Unveiling the Solvent Effect: DMSO Interaction with Human Nerve Growth Factor and Its Implications for Drug Discovery” (Molecules, 2025).
